Measurements: ChEMBL document CHEMBL5154940, “Effect of Chiral Purity on Adjuvanticity of Archaeol-Based Glycolipids” (J Med Chem, 2022)
Active and inactive are the calls of the source. No cut-off for these calls is given here.

What was measured:
Mus musculus [1] = organism: Mus musculus; experiment: Immuno-adjuvant activity in C57BL/6NCrl mouse assessed as increase in anti-ova total IgG level in serum at 0.3 to 1 mg in presence of 10 ug ovalbumin and measured 20 days post immunization by ELISA; type: functional, organism-based; settings: dose 0.3-1 mg, time 20.0 day
Mus musculus [2] = experiment: Immuno-adjuvant activity in C57BL/6NCrl mouse assessed as increase in anti-ova total IgG level in serum at 0.3 to 1 mg administered on day 0 and as booster dose on day 21 in presence of 10 ug ovalbumin measured on day 28 by ELISA; type: functional, organism-based; settings: dose 0.3-1 mg, time 28.0 day
Mus musculus [3] = experiment: Immuno-adjuvant activity in C57BL/6NCrl mouse assessed as increase in anti-ova total IgG level in serum at 0.3 to 1 mg administered on day 0 and as booster dose on day 21 in presence of 1 ug ovalbumin measured on day 28 by ELISA; type: functional, organism-based; settings: dose 0.3-1 mg, time 28.0 day
Mus musculus [4] = organism: Mus musculus; experiment: Immuno-adjuvant activity in C57BL/6NCrl mouse assessed as increase in IFN-gamma spot forming cells measured per 10^6 splenocytes at 0.3 mg in presence of 10 ug ovalbumin incubated for 20 hrs with SIINFEKL peptide stimulant and measured on day 28 by AEC chromogen based ELISPOT analysis; type: functional
Mus musculus [5] = organism: Mus musculus; experiment: Immuno-adjuvant activity in C57BL/6NCrl mouse assessed as increase in IFN-gamma spot forming cells measured per 10^6 splenocytes at 1 mg in presence of 1 ug ovalbumin incubated for 20 hrs with SIINFEKL peptide stimulant and measured on day 28 by AEC chromogen based ELISPOT analysis; type: functional
[6] = (§1) Cytotoxicity against mouse CD8-positive T cells in Ova- immunized C57BL/6NCrl mouse assessed as reduction in cell viability at 1 mg administrated on day 0 and as booster dose on day 21 followed by injection of cells to immunized mouse on day 27 in presence of 10 ug ovalbumin and measured on day 28 by flow cytometry analysis; type: toxicity, cell-based; settings: 672 h, time 28 day
[7] = as §1, with “at 0.3” for “at 1”; type: toxicity, cell-based; settings: 672 h, time 28 day
Mus musculus [8] = organism: Mus musculus; experiment: Immuno-adjuvant activity in C57BL/6NCrl mouse assessed as increase in anti-ova total IgG level in serum at 1 mg in presence of 1 ug ovalbumin and measured 20 days post immunization by ELISA; type: functional, organism-based; settings: time 20.0 day
Mus musculus [9] = organism: Mus musculus; experiment: Immuno-adjuvant activity in C57BL/6NCrl mouse assessed as increase in IFN-gamma spot forming cells measured per 10^6 splenocytes at 1 mg in presence of 10 ug ovalbumin incubated for 20 hrs with SIINFEKL peptide stimulant and measured on day 28 by AEC chromogen based ELISPOT analysis; type: functional
[10] = as §1, with “1” for “10”; type: toxicity, cell-based; settings: 672 h, time 28 day

Compound	Activity (Mus musculus [1])	Activity (Mus musculus [2])	Activity (Mus musculus [3])	Activity (Mus musculus [4])	Activity (Mus musculus [5])	Activity [6]	Activity [7]	Activity (Mus musculus [8])	Activity (Mus musculus [9])	Activity [10]
CC(C)CCCC(C)CCCC(C)CCCC(C)CCOCC(CO[C@@H]1O[C@H](CO)[C@@H](O[C@@H]2O[C@H](COS(=O)(=O)[O-])[C@H](O)[C@H](O)[C@H]2O)[C@H](O)[C@H]1O)OCCC(C)CCCC(C)CCCC(C)CCCC(C)C.[Na+] (stereo not given in full)	Active	Active	Active	6	6	Toxic	Toxic	Active	40	Toxic
CC(C)CCC[C@@H](C)CCC[C@@H](C)CCC[C@@H](C)CCOC[C@@H](CO[C@@H]1O[C@H](CO)[C@@H](O[C@@H]2O[C@H](COS(=O)(=O)[O-])[C@H](O)[C@H](O)[C@H]2O)[C@H](O)[C@H]1O)OCC[C@H](C)CCC[C@H](C)CCC[C@H](C)CCCC(C)C.[Na+]	Active	Active	Active	6	6	Toxic	Toxic	Active	40	Toxic
CC(C)CCC[C@@H](C)CCC[C@@H](C)CCC[C@@H](C)CCOC[C@H](CO[C@@H]1O[C@H](CO)[C@@H](O[C@@H]2O[C@H](COS(=O)(=O)[O-])[C@H](O)[C@H](O)[C@H]2O)[C@H](O)[C@H]1O)OCC[C@H](C)CCC[C@H](C)CCC[C@H](C)CCCC(C)C.[Na+]	Active	Active	Active	6	6	Toxic	Toxic	Active	40	Toxic
